Values quoted from earlier work as cited in patent US20040202705A1 (priority 1999, published 2004).

Conditions: human, in vivo

Nc1c2c(nc3ccccc13)CCCC2 [Tacrine]
Patients with reversible hepatotoxicity: approximately 30%
